Laboratory results reported in a melting point compilation (Tetko et al.; mined from patent text by program, amines drawn as free bases though some values may be those of a salt).

melting point [°C] | Structure (SMILES)
106 to 107 | CCCc1nn(-c2ccc(C(F)(F)F)cn2)cc1CCCOc1cccc(CC(=O)O)c1
297 to 299 | COc1cc(C(=O)NS(=O)(=O)c2ccccc2C)ccc1Cn1cc(/C=C/C(=O)N2CCCC2)c2ccc(/C=C/C(=O)N3CCCC3)cc21
178 to 179 | CCCCOc1c(C(=O)O)n(CC2CC2)c(=O)c2ccc(OCc3ccccc3)cc12
366 to 367 | O=C(O)c1ccc(C(c2ccc(C(=O)O)cc2)(c2ccc(C(=O)O)cc2)C(F)(F)F)cc1
150 to 151 | CC(C)(C)OC(=O)NC(Cc1ccccc1)C(O)CNCC(O)C(CCc1ccccc1)NC(=O)OCc1ccccc1 (stereo unspecified)
157 to 159 | O=C(NCCCCOc1ccc(-n2ccnc2)cc1)Nc1ccc(Br)cc1
196 to 198 | COc1ccc(NC(=O)Nc2ccccc2)cc1
209 to 211 | O=C(O)c1cc(-n2c(-c3ccccc3)cc3c2CCCC3)ccc1O
116 | CC(=NOCC(=O)O)c1ccc(Cl)cc1
150 | Cc1ccc2[nH]c(=O)n(CCCN3CCC(C(=O)c4ccc(F)cc4)CC3)c2c1
138 to 140 | CCOC(=O)c1c(C(C)C)nc(-c2ccccc2)c(C(C)C)c1-c1ccc(F)cc1
206 to 208 | Cn1c2ccc(Cl)cc2c2c(CC(=O)O)nn(-c3ccccc3)c(=O)c21
158 to 159 | COc1cc(OCc2cn(-c3ccc(C(F)(F)F)cn3)nc2C)ccc1CCC(=O)O
228 | CC(C)CN1CCCC[C@H]1CNc1nc(Oc2cccc3[nH]c(=O)c(N)nc23)cc(-c2ccc(C(F)(F)F)cc2)n1
112 to 114 | O=C(O)CC[C@H]1O[C@@H](c2ccccc2)c2ccccc2N(Cc2ccccc2)C1=O (relative stereo)
211 to 213 | O=C1CCC(N2Cc3c(OCc4cccc(CN5CCC(c6ccc(F)cc6F)CC5)c4)cccc3C2=O)C(=O)N1 (stereo unspecified)
170 to 173 | CC(=O)n1ccc(N2CCCC2)c1C(=O)c1cccnc1Nc1cccc(Cl)c1
198 to 200 | O=C1CCC(N2Cc3c(OCc4ccc(CN5CCC(c6ccncc6)CC5)cc4)cccc3C2=O)C(=O)N1 (stereo unspecified)
95 to 100 | CC(C)c1c(C=CC(=O)CC(O)CC(=O)O)c(-c2ccccc2)c2c3ccccc3ccn12 (stereo unspecified)
293 | Cc1ccc(N2C(=O)C(O)=C(C(=O)c3ccc(C(C)C)cc3)C2c2ccc(-c3nnc(C)o3)cc2)nn1 (stereo unspecified)

melting point [°C] | Structure (SMILES)
267 to 269 | O=C1C2Cc3c(nc(Br)n3Cc3ccccc3)CN2C(=O)N1c1ccccc1 (stereo unspecified)
133 to 134 | COCOc1cc(C(=O)O)n(Cc2ccc(C(F)(F)F)cc2Cl)n1
102 | CN(C)C(=O)Sc1ccccc1C(=O)c1ccc(C#N)cc1
200 to 202 | Cc1ccc2c(=O)c(OC(=O)c3ccccc3)cn(C)c2c1
135 to 136 | CC(=O)c1cccc(N=P(c2ccccc2)(c2ccccc2)c2ccccc2)c1
156 to 157 | Cc1ccc(C(=O)Nc2c(NC(=O)CN(C)CC3OCCO3)ccc3c2C(=O)c2ccccc2C3=O)cc1
60 to 62 | CCOC(=O)COCCc1cc2cc(Cl)ccc2n1S(=O)(=O)c1ccccc1
214 to 215 | CC(C(=O)N1c2ccccc2N(C)C(=O)c2cnc(-c3ccccc3)nc21)N1CCCCC1 (stereo unspecified)
222 | CCNS(=O)(=O)c1cccc(NC(=O)c2cnn3c(C(F)F)cc(-c4ccc(C(F)(F)F)c(OCC)c4)nc23)c1
215 to 217 | CCCOc1ccc(-c2ccc3c(c2)C=C(C(=O)O)CCN3C=O)cc1
131 to 134 | CC(CSCCSCCSCC(C)C(=O)Nc1ccc(Nc2ccccc2)cc1)C(=O)Nc1ccc(Nc2ccccc2)cc1 (stereo unspecified)
70 to 72 | Oc1ccc(Oc2ncc(C(F)(F)F)cc2Cl)cc1
129 to 130 | Cc1ccc(-c2nc(COc3cccc(OCc4cccc(C)c4C(=O)O)c3)co2)s1
185 | COc1ccc(-c2nc(C(=O)c3ccc([N+](=O)[O-])c(OC)c3)n3ccccc23)cc1
88.5 to 89.5 | CN(C)C(=O)COc1cccc(C(F)(F)F)c1
176 to 177 | CC(C)(C)N1C(=O)c2cnc(-c3ccccc3)nc2N(C(=O)CCl)c2ccccc21
151 to 152 | O=C(NC1CC1)c1nc(-c2ccccc2)c(-c2ccc(=O)n(Cc3ccccc3)n2)s1
52 to 54 | CCOC(=O)c1ccc2c(Br)cccc2c1
217 | O=C(c1ccccc1)c1cc(-c2ccccc2)c(OS(=O)(=O)c2ccc(C(=O)O)c(O)c2)c(-c2ccccc2)c1
225 to 226 | O=C(N[C@H](Cc1ccc(C(F)(F)F)cc1)[C@@H](O)c1cccc(Cl)n1)c1ccc(F)c2ccccc12 (racemic)

Second part, the compound before the results:

Structure (SMILES) | melting point [°C]
CCSc1nn2c(-c3ccc(OC)cc3)nnc2c2ccccc12 | 176 to 178
CC1(C)C(=O)Nc2ccc(-c3cc(F)cc(Cl)c3)cc21 | 206 to 207
CCCCCCCCCCCCn1nnc(C(=O)O)n1 | 122 to 124
C=CC(=O)OCCNC(=O)C(C)ON(C(C(C)(C)C)P(=O)(OCC)OCC)C(C)(C)C (stereo unspecified) | 95 to 98
Cc1cc(C)c(C(=O)P(=O)(Cc2ccccc2)c2ccccc2)c(C)c1 (stereo unspecified) | 113 to 114
Cc1oc(-c2ccc(F)cc2)cc1CO | 80 to 82
O=C1OCc2c1cc1ccc3c(c1c2-c1ccc2ccccc2c1)OCO3 | 224 to 226
C#CCNC(=O)c1ccccc1Nc1nc(Cl)ncc1Cl | 188 to 191
CC(=O)SCCN(CCC1CCCCC1)C(=O)N[C@@H](C)C(=O)O | 89.5 to 90.5
Cc1ccccc1Sc1cccc(C=O)c1O | 42 to 43
C=CCOc1cc(C(O)CS(C)(=O)=O)cc(OCC=C)c1NC(C)=O (stereo unspecified) | 162
Cc1c(C)n(CC(F)(F)F)c2c(OCc3ccccc3)nncc12 | 83 to 84
CCCc1c(OCCCCCOc2ccc3c(c2CCC)OC(C(=O)O)CC3)ccc(C(C)=O)c1O (stereo unspecified) | 66 to 68
COCCOc1ccc(I)cc1 | 36 to 37
COc1ccc(CC(C)(C)NC(=O)N(C)O)cc1OC | 77 to 78
COc1cc(-c2nc3cc(F)ccc3s2)ccc1OC(=O)N1CCOCC1 | 126
CCCOc1ccccc1-c1ncc(N)c(=O)[nH]1 | 157 to 158
CNS(=O)(=O)c1nc2ccc(O)cc2s1 | 189 to 190
Brc1ccc2c(c1)Sc1ccccc1CC2 | 69 to 71

Structure (SMILES) | melting point [°C]
CC(C)(C)NC(=O)c1nn(-c2cc(F)cc(F)c2)c2c1C1CCC2C1 (stereo unspecified) | 103 to 107
COc1nc(CC(=O)OC(C)(C)C)c([N+](=O)[O-])cc1C | 71 to 72.5
CCCCN(CCCC)c1ccc(C(C#N)=c2ccc(=C(C#N)C#N)cc2)c(OC)c1 | 215 to 238
COc1ccc(Cn2nnnc2C(O)c2ccccc2C)cc1 (racemic) | 90 to 92
CNC(C(C)C)C(c1ccccc1)c1ccccc1 (stereo unspecified) | 46 to 48
C=CCOc1cc(Br)ccc1C(C)=NO | 115
CSC(C(=O)O)c1ccsc1 (stereo unspecified) | 73.5 to 74
CCOC(=O)c1cncn1C1CC(C)(C)Oc2ccccc21 (stereo unspecified) | 80.9
CCOC(=O)CNc1ncccc1NC(=O)c1ccccn1 | 98 to 100
NC(=S)Nc1cc(Cl)cc(Cl)c1 | 180
C=COC(=O)N1C[C@@H]2C(=O)CCC(c3ccccc3)(c3ccccc3)[C@@H]2C1 (racemic) | 178
COc1cc(C(F)(F)F)oc(=O)c1 | 61
COC(=O)C=C(CC(=O)OC)NCc1ccccc1 | 67 to 69
CC(=O)OCC(C(OC(C)=O)c1ccc([N+](=O)[O-])cc1)[N+](=O)[O-] (stereo unspecified) | 63 to 66
CN1CCN(c2ccc(Nc3cc(-c4cccc(-n5ncc6cc(C(C)(C)C)cc(F)c6c5=O)c4CO)nn(C)c3=O)nc2)CC1 | 260 to 264
COCCn1cc(-c2ccccc2)[nH]c1=O | 152 to 153
CC(C)c1cc(O)cc2c1C(=O)N(CSc1ccccc1)S2(=O)=O | 127 to 130
OC[C@@H]1O[C@H]1C#CC#CC#Cc1ccccc1 (relative stereo) | 68 to 70
COCCOC(=O)c1cncn1C1CCCc2ccccc21 (stereo unspecified) | 66.8

Structure (SMILES) | melting point [°C]
Cc1c(N)ccn2nc(-c3ccccc3)nc12 | 213 to 215
C[C@](O)(COc1ccc(C#N)c(F)c1)C(=O)Nc1ccc(C#N)c(C(F)(F)F)c1 | 124 to 125
CCCCc1ncc(/C=C(\Cc2cccs2)C(=O)O)n1Cc1ccccc1OC | 186 to 187
CCOC(=O)c1cn2c3c(c(F)c(F)cc3c1=O)OCC2COC (stereo unspecified) | 238
Cc1ccc(-c2c(Cl)nc3ncnn3c2NC2CCCC2)cc1 | 158
CS(=O)(=O)Nc1ccc(CCCOCCCCCCNCC(O)c2cc(Cl)c(N)c(Cl)c2)cc1 (stereo unspecified) | 62 to 64
CCN(CCCCC12CC3CC(CC(C3)C1)C2)C(=O)NCCCc1ccncc1 | 92.7 to 93.7
Cc1c(C)c2c(c(C)c1NC(=O)N1CCCC1)C(c1ccc(C(C)C)cc1)CO2 (stereo unspecified) | 186 to 188
Nc1cc(C=C2OC(=O)c3ccccc32)ccc1F | 189 to 191
Cc1[nH]cnc1/C=C/C(=O)c1c(C)oc2ccccc12 | 166 to 168
CN1CC=C(C(=O)N2c3ccccc3C(=O)Nc3cccc(Cl)c32)CC1 | 296
COc1ccc(-c2nc3cc4c(cc3[nH]2)NC(=O)C4C(C)C)cc1 (stereo unspecified) | 326 to 328
Cc1nc(NC(=O)c2cnn3c(C(F)(F)F)cc(-c4ccc(C(F)(F)F)c(OCC(F)(F)F)c4)nc23)sc1S(=O)(=O)NC(C)(C)CO | 275
NNC1=NS(=O)(=O)c2cnccc2N1 | 290 to 292
CCOP(=O)(CCc1cc(OCc2ccc(OCc3nc(-c4ccco4)oc3C)c(OC)c2)nn1-c1ccccc1)OCC | 76 to 77
CNC(=S)C1(c2cccc(C)n2)CCCCS1 (stereo unspecified) | 139
CC1=C(C(=O)OCOC(=O)C(C)(C)C)C(c2cccc([N+](=O)[O-])c2)C(C(=O)OCOC(=O)C(C)(C)C)=C(C)N1 | 124 to 125
COC(=O)COc1ccc(OC)cc1C=O | 74 to 75
